Reference: patent US6527690B2, “Purification of phenyl ester salts” (priority 2000, dated 2003)

What was measured:
[1] = Measurement of perhydrolysis rate of formulated beads; settings: 5 minutes, 10° C.
Description: To determine its perhydrolysis rate, the phenyl ester salt was formulated into beads. The beads were typically formulated using a powder or solid phenyl ester salt with a surfactant and a chelating agent. A typical formulation is shown below: […]
The dry materials were weighed, charged into a one-gallon sigma blade mixer and dry mixed for 1 minute. While mixing, water was added and mixing was continued for about 17.5 minutes. The wet mix bulk density was determined by measuring weight/volume. The material was extruded using the Luwa DG-L I at 90 rpm (using a 0.7 mm/I mm, 19.7% open area die). The extrusion was rounded for 1 minute at 1,350 rpm in the Luwa QJ-230 Marumerizer, followed by drying for 20 minutes at 115° C. in a Luwa MDB-400 fluid bed.
Perhydrolysis rate is the percentage of a phenyl ester salt that has undergone perhydrolysis in a specified period of time and at a specific temperature. For the purposes of these examples, perhydrolysis rate is measured at 5 and 30 minutes intervals at 10° C.
The perhydrolysis rate of a phenyl ester salt is measured by adding a weighed quantity of formulated beads comprising the phenyl ester salt, a reference detergent, and sodium […] monohydrate to a synthetic hard water solution in a chilled dissolution vessel (Sotax Model AT7, modified with a emersion chiller). The solution is maintained at 10° C. and stirred at 150 rpm. […]

[2] = Hydrolysis of phenyl ester salt in water at elevated temperature (water crystallization); assay type: physicochemical
Text: Phenyl ester salts may also be recrystallized from aqueous solutions. At first glance, the use of water (or an alcohol) as a solvent to replace acetic acid typically used for the purification of crude phenyl ester salts is not an obvious choice. Japanese Patent No. 6-306,042 (1995), for example, reports that compounds related to phenyl ester salts in water or alcohol are subject to hydrolysis or solvolysis at elevated temperatures. Indeed, initial work on water crystallization confirmed that phenyl ester salts, such as Compound (1), did undergo hydrolysis at elevated temperatures. Typical losses of Compound (1) were in the range of 5-7.5% at 90° C.

sodium nonanamidohexanoyloxybenzenesulfonate [Compound (1)]
Five minute perhydrolysis rate ([1]; beads prepared from crystallized Compound (1)): 20% | Five minute perhydrolysis rate ([1]; beads prepared from spray-dried Compound (1)): 100% | Hydrolysis ([2]; 90° C., operating at a pH range of 4-6): about 2.2% | Typical losses by hydrolysis ([2]; water crystallization at 90° C., pH not controlled): 5-7.5%
